Laboratory results as given in patent publication US11591299B1, “Prodrug compound of levosimendan, preparation method and use thereof” (Beijing Chenguang Tongchuang Pharmaceutical Research …, priority 2022, dated 2023).

Key:
[1] = Pharmacokinetic study: metabolism of prodrug and conversion to levosimendan in plasma after in vivo administration; details: for ranking of metabolic conversion rates among the 13 prodrug molecules: in plasma within 10 minutes
Procedure: FIGS. 4-6 are the change profile of the content of compound TCX1001-031 itself in plasma after administration in the pharmacokinetic study, the change profile of the content of released levosimendan, and the pharmacokinetic metabolic conversion rate, respectively.
The conversion rates of these compounds to levosimendan in plasma within 10 minutes are approximately 30-45%.

[2] = Solubility determination in water (Chinese Pharmacopoeia 2020 solubility test method); assay type: physicochemical; details: 25° C.±2° C., dissolution observed within 30 minutes
Procedure: The determination is based on the solubility test method in General Example 15 of Part IV in “Chinese Pharmacopoeia (2020 Edition)”: the test product was ground into fine powders, and water at about 25° C. is added in a certain water bath at 25° C.±2° C., and shaken vigorously for 30 seconds every 5 minutes, to observe the dissolution within 30 minutes. If there are no visible solute particles, it is regarded as complete dissolution.

[3] = general statement, no test described; cited from earlier work

| Compound | solubility in water [2] | also measured |
| --- | --- | --- |
| C[C@@H]1CC(=O)N(COC(=O)c2ccc(CN3CCOCC3)cc2)N=C1c1ccc(NN=C(C#N)C#N)cc1 [TCX-1001-031] | [drawing 4] Rp = 4-(morpholin-1-ylmethyl)phenyl Chemical name: (R)-(3-((4-(2- (dicyanomethylene)hydrazino)phenyl)- 4-methyl-6-oxo-5,6-dihydropyridazin- 1(4H)-yl)methyl 4-(morpholin-1-ylmethyl)benzoate (TCX-1001-031) This product is sparingly soluble in water | ranking of metabolic conversion rates among the 13 prodrug molecules [1]: highest; time to complete metabolism of the prodrug (content drops to 0) ([1]; plasma, after in vivo administration): ≤ 1 min |
| C[C@@H]1CC(=O)N(COC(=O)CN)N=C1c1ccc(NN=C(C#N)C#N)cc1 [TCX-1001-032, (R)-(3-((4-(2-(dicyanomethylene)hydrazino)phenyl)-4-methyl-6-oxo-5,6-dihydropyridazin-1(4H)-yl)methyl glycinate] | [drawing 9] Rp = aminomethyl Chemical name: (R)-(3-((4-(2- (dicyanomethylene)hydrazino)phenyl)- 4-methyl-6-oxo-5,6-dihydropyridazin- 1(4H)-yl)m ethyl glycinate (TCX-1001-032) This product is slightly soluble in water |  |
| C[C@@H]1CC(=O)N(COC(=O)CC(=O)O)N=C1c1ccc(NN=C(C#N)C#N)cc1 [TCX-1001-041, (R)-(3-((4-(2-(dicyanomethylene)hydrazino)phenyl)-4-methyl-6-oxo-5,6-dihydropyridazin-1(4H)-yl)methyl 2-carboxyl acetate] | [drawing 12] Rp = carboxylmethyl Chemical name: (R)-(3-((4-(2- (dicyanomethylene)hydrazino)phenyl)- 4-methyl-6-oxo-5,6-dihydropyridazin- 1(4H)-yl)methyl 2-carboxylacetate (TCX-1001-041) This product is slightly soluble in water |  |
| C[C@@H]1CC(=O)N(COC(=O)OCC(=O)O)N=C1c1ccc(NN=C(C#N)C#N)cc1 [TCX-1001-035, (R)-(3-((4-(2-(dicyanomethylene)hydrazino)phenyl)-4-methyl-6-oxo-5,6-dihydropyridazin-1(4H)-yl)methyl carboxylmethyloxyformate] | [drawing 14] Rp = carboxylmethoxy Chemical name: (R)-(3-((4-(2- (dicyanomethylene)hydrazino)phenyl)- 4-methyl-6-oxo-5,6-dihydropyridazin- 1(4H)-yl)methyl carboxylmethyloxyformate (TCX-1001-035) This product is slightly soluble in water |  |
| C[C@@H]1CC(=O)N(COC(=O)N2CCC(N3CCCCC3)CC2)N=C1c1ccc(NN=C(C#N)C#N)cc1 [TCX-1001-037] | [drawing 8] Rp = 4-(piperidin-1-yl)-piperidin-1-yl Chemical name: (R)-(3-((4-(2- (dicyanomethylene)hydrazino)phenyl)- 4-methyl-6-oxo-5,6-dihydropyridazin- 1(4H)-yl)methyl 4-(piperidin-1-yl)piperidin-1-ylformate (TCX-1001-037) This product is sparingly soluble in water |  |
| C[C@@H]1CC(=O)N(COC(=O)c2ccc(CN3CCN(C)CC3)cc2)N=C1c1ccc(NN=C(C#N)C#N)cc1 [TCX-1001-033] | [drawing 5] Rp = 4-(4-methylpiperazin-1-ylmethyl)phenyl Chemical name: (R)-(3-((4-(2- (dicyanomethylene)hydrazino)phenyl)- 4-methyl-6-oxo-5,6-dihydropyridazin- 1(4H)-yl)methyl 4-((4- methylpiperazin-1-yl)methyl)benzoate (TCX-1001-033) This product is sparingly soluble in water | ranking of metabolic conversion rates among the 13 prodrug molecules [1]: highest |
| C[C@@H]1CC(=O)N(COC(=O)COS(=O)(=O)O)N=C1c1ccc(NN=C(C#N)C#N)cc1 [TCX-1001-038, (R)-(3-((4-(2-(dicyanomethylene)hydrazino)phenyl)-4-methyl-6-oxo-5,6-dihydropyridazin-1(4H)-yl)methyl sulfonyloxyacetate] | [drawing 16] Rp = sulfonyloxymethyl Chemical name: (R)-(3-((4-(2- (dicyanomethylene)hydrazino)phenyl)- 4-methyl-6-oxo-5,6-dihydropyridazin- 1(4H)-yl)methyl sulfonyloxyacetate (TCX-1001-038) This product is extremely soluble in water |  |
| C[C@@H]1CC(=O)N(COC(=O)CCC(=O)O)N=C1c1ccc(NN=C(C#N)C#N)cc1 [TCX-1001-034] | [drawing 13] Rp = carboxyl ethyl Chemical name: (R)-(3-((4-(2- (dicyanomethylene)hydrazino)phenyl)- 4-methyl-6-oxo-5,6-dihydropyridazin- 1(4H)-yl)methyl 3-carboxylpropionate (TCX-1001-034) This product is slightly soluble in water |  |
| C[C@@H]1CC(=O)N(COC(=O)CN(C)C)N=C1c1ccc(NN=C(C#N)C#N)cc1 [TCX-1001-030] | [drawing 6] Rp = N,N-dimethylaminomethyl Chemical name: (R)-(3-((4-(2- (dicyanomethylene)hydrazino)phenyl)- 4-methyl-6-oxo-5,6-dihydropyridazin- 1(4H)-yl)m ethyl N,N- dimethylglycinate (TCX-1001-030) This product is slightly soluble in water | ranking of metabolic conversion rates among the 13 prodrug molecules [1]: highest |
| C[C@@H]1CC(=O)N(COC(=O)COP(=O)(O)O)N=C1c1ccc(NN=C(C#N)C#N)cc1 [TCX-1001-040, (R)-(3-((4-(2-(dicyanomethylene)hydrazino)phenyl)-4-methyl-6-oxo-5,6-dihydropyridazin-1(4H)-yl)methyl phosphoryloxyacetate] | [drawing 15] Rp = phosphoryloxymethyl Chemical name: (R)-(3-((4-(2- (dicyanomethylene)hydrazino)phenyl)- 4-methyl-6-oxo-5,6-dihydropyridazin- 1(4H)-yl)methyl phosphoryloxyacetate (TCX-1001-040) This product is extremely soluble in water |  |
| C[C@@H]1CC(=O)N(COC(=O)CC(=O)NCc2ccncc2)N=C1c1ccc(NN=C(C#N)C#N)cc1 [TCX-1001-036] | [drawing 10] Rp = pyridin-4-ylmethylaminoformylmethyl Chemical name: (R)-(3-((4-(2- (dicyanomethylene)hydrazino)phenyl)- 4-methyl-6-oxo-5,6-dihydropyridazin- 1(4H)-yl)methyl 3-oxo-3-((pyridin-4-ylmethyl)amino)propionate (TCX-1001-036) This product is extremely slightly soluble in water |  |
| C[C@@H]1CC(=O)N(COC(=O)CN2CCCC2)N=C1c1ccc(NN=C(C#N)C#N)cc1 [TCX-1001-039] | [drawing 11] Rp = pyrrolidin-1-ylmethyl Chemical name: (R)-(3-((4-(2- (dicyanomethylene)hydrazino)phenyl)- 4-methyl-6-oxo-5,6-dihydropyridazin- 1(4H)-yl)methyl 2-pyrrolidin-1-yl- acetate (TCX-1001-03 9) This product is slightly soluble in water |  |
| C[C@@H]1CC(=O)N(COC(=O)c2cccnc2)N=C1c1ccc(NN=C(C#N)C#N)cc1 [TCX-1001-029, (R)-(3-((4-(2-(dicyanomethylene)hydrazino)phenyl)-4-methyl-6-oxo-5,6-dihydropyridazin-1(4H)-yl)methyl nicotinate] | [drawing 7] Rp = pyridin-3-yl Chemical name: (R)-(3-((4-(2- (dicyanomethylene)hydrazino)phenyl)- 4-methyl-6-oxo-5,6-dihydropyridazin- 1(4H)-yl)methyl nicotinate (TCX-1001-029) This product is extremely slightly soluble in water | ranking of metabolic conversion rates among the 13 prodrug molecules [1]: highest |
| C[C@@H]1CC(=O)NN=C1c1ccc(NN=C(C#N)C#N)cc1 [Levosimendan, (R)-[[4-(1,4,5,6-tetrahydro-4-methyl-6-oxo-pyridazin-3-yl)phenyl]-hydrazono]-malononitrile] |  | solubility of levosimendan in most organic solvents [3]: insoluble or extremely poorly soluble; solubility of levosimendan in water [3]: insoluble |
